Experimental data reported in patent US9617310B2 (priority 2013, dated 2017).
pEC50, pKi: −log10 of the molar value.

What was measured:
[1] = test system: genotype 2a stable HCV replicon (JFH-1) in Huh-7-derived cells; test: Stable subgenomic HCV replicon, genotype 2a, Renilla luciferase; type: cell-based; conditions: Hepatitis C virus, stable replicon genotype 2a, 72 h, read-out: EC50 2A RLUC
[2] = test system: genotype 1a stable HCV replicon (H77) in Huh-7-derived cells; test: Stable subgenomic HCV replicon, genotype 1a, Renilla luciferase; type: cell-based; conditions: Hepatitis C virus, stable replicon genotype 1a, 72 h, read-out: EC50 1A RLUC
In short: (§1)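 Replicons carry hRLuc-neo, EMCV IRES and NS3-NS5B with adaptive mutations: 1a H77 P1496L/S2204I, 1b Con1 E1202G/T1280I/K1846T, 4a ED43 Q1691R/S2204I. EC50 came from non-linear regression versus DMSO and a triple-inhibitor full-inhibition control.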

[3] = test system: genotype 4a stable HCV replicon (ED43) in Huh-7-derived cells; test: Stable subgenomic HCV replicon, genotype 4a, Renilla luciferase; type: cell-based; conditions: Hepatitis C virus, 72 h, read-out: EC50 4A RLUC
In short: as §1

[4] = test system: NS3/4a protease inhibitor resistant variant D168A in genotype 1b transient HCV replicon; test: Transient-transfected HCV replicon, genotype 1b D168A; type: cell-based; conditions: Hepatitis C virus, 72 h, read-out: EC50 1B D168A
[5] = test system: NS3/4a protease inhibitor resistant variant R155K in genotype 1a transient HCV replicon; test: Transient-transfected HCV replicon, genotype 1a R155K; type: cell-based; conditions: Hepatitis C virus, 72 h, read-out: EC50 1A R155K
NS3 genotype 1b protease = molecular target: T1, NS3 genotype 1b protease (Hepatitis C virus genotype 1b, UniProt Q9WMX2, E1202G); test: Ki determination, NS3 protease genotype 1b (fluorogenic depsipeptide substrate); type: biochemical; conditions: NS3 protease domain genotype 1b, NS4A peptide
T1 construct: Purified NS3 protease domain (amino acids 1-181) of the genotype 1b and 3a virus were generated as above; K3 hexahistidine tag (N); rTEV protease cleavage site (N); made in house; host or cells: E. coli BL21AI
T1 sequence (Q9WMX2 1027-1207 E1202G, other chains not shown): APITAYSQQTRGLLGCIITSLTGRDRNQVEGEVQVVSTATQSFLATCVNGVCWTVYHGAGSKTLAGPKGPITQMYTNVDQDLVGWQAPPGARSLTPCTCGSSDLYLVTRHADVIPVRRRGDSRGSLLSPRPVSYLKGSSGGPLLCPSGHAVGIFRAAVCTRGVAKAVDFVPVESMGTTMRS
In short: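 NS3 protease domain (aa 1-181), 50 pM (1b) or 200 pM (3a), with 20 μM NS4A peptide, pre-incubated 1 h with inhibitor (100 nM–5 pM); 4 μM (1b) or 2 μM (3a) FRET depsipeptide substrate, room temperature, pH-unspecified HEPES buffer with 40% glycerol, 10% DMSO. Steady-state rates at 90–120 min (ex 340/em 490); Morrison fit gave Ki^app, corrected to Ki via substrate/Km.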

[6] = test system: genotype 3a transient HCV replicon (S52) in Huh-7-derived cells; test: Transient-transfected HCV replicon, genotype 3a wild type; type: cell-based; conditions: Hepatitis C virus; transient-transfected replicon genotype 3a wild type, 72 h; read-out: EC50 3A WT
[7] = test system: genotype 3a stable HCV replicon (S52) in Huh-7-derived cells; test: Stable subgenomic HCV replicon, genotype 3a, Renilla luciferase; type: cell-based; conditions: Hepatitis C virus, 72 h, read-out: EC50 3A RLUC
[8] = test system: genotype 1b stable HCV replicon (Con1) in Huh-7-derived cells; test: Stable subgenomic HCV replicon, genotype 1b, Renilla luciferase; type: cell-based; conditions: Hepatitis C virus, stable replicon genotype 1b, 72 h, read-out: EC50 1B RLUC
In short: as §1

## COc1ccc2cc3c(nc2c1)O[C@@H]1C[C@@H](C(=O)N[C@]2(C(=O)NS(=O)(=O)C4CC4)C[C@H]2C(F)F)N(C1)C(=O)[C@H](C(C)(C)C)NC(=O)O[C@@H]1C[C@@H]2C[C@@H]2[C@H]1CCCCC3 [Example 21, (1aS,2aR,6S,9S,11R,23aR,23bS)-6-tert-butyl-N-[(1R,2R)-1-[(cyclopropylsulfonyl)carbamoyl]-2-(difluoromethyl)cyclopropyl]-15-methoxy-4,7-dioxo-1a,2,2a,4,5,6,7,10,11,19,20,21,22,23,23a,23b-hexadecahydro-1H,9H-8,11-methanocyclopropa[4′,5′]cyclopenta[1′,2′:18,19][1,10,3,6]dioxadiazacyclononadecino[11,12-b]quinoline-9-carboxamide]
[1]
  pEC50: 8.46
[2]
  pEC50: 8.80
[3]
  pEC50: 8.85
[4]
  pEC50: 7.66
[5]
  pEC50: 8.85
NS3 genotype 1b protease
  pKi: 10.70
[6]
  pEC50: 7.44
[7]
  pEC50: 6.94
[8]
  pEC50: 9.02
